Measured values taken from patent US20130224239A1, “ALCOHOLIC EXTRACT OF FUNGI OF GENUS […] AND USE THEREOF” (KING SAUD UNIVERSITY, priority 2011, published 2013).

Experiments:
Assay in all cases: Antimicrobial screening, disc diffusion
Type in all cases: cell-based
[1] = test system: Pseudomonas aeruginosa (RCMB 0102); conditions: Pseudomonas aeurginosa; compounds isolated from Cunninghamella elegans
Procedure: (§1) The alcoholic extracts obtained were used for testing their antimicrobial activity. Each extract (0.5 g) was dissolved in 10 ml water. Same concentrations for the successive extracts (using diethyl ether, chloroform, ethyl acetate and n-butanol) were also prepared.
(§2) The representatives of Gram negative bacteria, namely Salmonella typhimuium (RCMB 0104), Escherichia coli (RCMB 0103), Pseudomonas aeruginosa (RCMB 0102) and Gram positive bacteria, namely Bacillus subtilis (RCMB 0107), Staphylococcus aureus (RCMB 0106), Streptococcus pyogenes (RCMB 0109), unicellular fungi, namely Candida albicans (RCMB 5002) and filamentous fungi, namely Aspergillus fumigatus (RCMB 2003) and Penicllium expansum (RCMB 1006) were used as test organisms (RCMB: The Regional Center for Mycology and Biotechnology, Al-azhar University Nasser City, Cairo, Egypt).
(§3) For antimicrobial screening the well known disc diffusion and agar well diffusion methods were used, together with the determination of minimum inhibitory concentration (MIC), see Duguid et al., Microbial Infections, The English Language Book Society, Churchill Livingston, Edingburgh, London, 1978; vol. 1, page 110.
(§4) Disc diffusion method: The agar disc diffusion method is employed for the determination of antimicrobial activities of the extracts of the investigated fungal species. Sterilized paper discs (Whatman No. 1) ([…]) were separately soaked in the extracts and transferred onto the surface of growth media seeded with the test organism. After incubation period, following suitable conditions for the test organism, the diameter of the inhibition zone around the discs was measured in millimeters. The obtained result was the mean of three experiments.
(§5) Each fungal species was grown on malt extract media at 28±2° C. for 14 days. The metabolites of the fungal species were screened for antimicrobial activity. The inhibition zones around each disc were measured, in millimeter, and recorded (Tables 1).

[2] = test system: Aspergillus fumigatus (RCMB 2003); conditions: compounds isolated from Cunninghamella elegans
Procedure: as §1, §2, §3, §4, §5

[3] = test system: Staphylococcus aureus (RCMB 0106); conditions: compounds isolated from Cunninghamella elegans
Procedure: as §1, §2, §3, §4, §5

[4] = test system: Penicllium expansum (RCMB 1006); conditions: Penicillium expansum; compounds isolated from Cunninghamella elegans
Procedure: as §1, §2, §3, §4, §5

[5] = test system: Escherichia coli (RCMB 0103); conditions: compounds isolated from Cunninghamella elegans
Procedure: as §1, §2, §3, §4, §5

[6] = test system: Bacillus subtilis (RCMB 0107); conditions: compounds isolated from Cunninghamella elegans
Procedure: as §1, §2, §3, §4, §5

[7] = test system: Streptococcus pyogenes (RCMB 0109); conditions: compounds isolated from Cunninghamella elegans
Procedure: as §1, §2, §3, §4, §5

[8] = test system: Candida albicans (RCMB 5002); conditions: compounds isolated from Cunninghamella elegans
Procedure: as §1, §2, §3, §4, §5

Measured: Diameter of inhibition zone

Nc1ncnc2c1ncn2C1OC(CO)C(O)C1O (stereo not drawn) [Compound 4, 2-(6-amino-9H-purine-9-yl)-5-(hydroxymethyl)oxolane-3,4-diol]
30.0 ± 0.1 mm: [3]
00.0 mm: [1] | [2] | [4] | [5] | [6] | [7] | [8]
30.0±0.01 mm: [3]; listed as compound 4
